Tested on: TCR-transduced T cells
Assay: Peptide-pulsed HLA-C*07:02 monoallelic HEK293T granzyme-activated fluorescent reporter cells co-cultured with TCR-transduced T cells
Type: cell-based, human
Procedure: Overlapping peptide sequences with a score >2.5 fold were used to predict MHC binding with NetMHC4.0 (available on the World Wide Web at cbs.dtu.dk) and the top predicted MHC binding peptides were synthesized (Genscript). Monoallelic C*07:02 HEK293T reporter cells were pulsed with serial dilutions 0-20,000 ng/ml of each peptide candidate for 1 hour and then co-cultured with TCR-transduced T cells (1-IN-32-39 or HN-32-41) at an E:T ratio of ˜1:1. After 4 hours, the cultures were harvested by pipetting and fluorescence of the reporter was detected using a CytoFLEX™ S instrument (Beckman Coulter). Additionally, monoallelic C*07:02 HEK293 suspension cells were pulsed with serial dilutions 0-500 pM of peptide VBFFFPSL (SEQ ID NO: 1) for 2 hours and then co-cultured with TCR-transduced T cells (HN-32-39 or HN-32-41) at an E:T ratio of 1:1 overnight. Cells were then harvested by pipetting and centrifuged at 2,000 rpm for 2 minutes. The supernatant was collected for IFNγ measurement using a human IFNγ 3rd generation single-plex assay (Protein Simple).

## VRFFFPSL (listed as Homo sapiens) [VBFFFPSL]
FIGS. 2D and 2E
  immunogenicity in peptide validation: most favorable immunogenicity
HLA-C*07:02 monoallelic HEK293T, granzyme-activated fluorescent reporter, FIGS. 2D and 2E left
  reactivity of the TCR-transduced T cells to peptide-pulsed reporter cells (epitope confirmation): minimal MAGEA1 epitope
